# Measurements from PMC11253624, “Unsaturated fatty acid perturbation combats emerging triazole antifungal resistance in the human fungal pathogen Aspergillus fumigatus” (mBio, 2024).
# Where two headings read alike, the source gives them in different places.
# Key:
# A. fumigatus CEA10 = assay: Fatty acid profile of 24-hour biofilms by GC-MS; format: cell-based, Aspergillus fumigatus; settings: CEA10 24-hour biofilm; MBX-7591 0.58 µg/mL, voriconazole 0.0625 µg/mL
# Blastomyces dematitidis = assay: microbe, parasite or virus in culture; format: cell-based
# [1] = tested on: A. fumigatus strain ATCC46645; assay: Murine model of invasive pulmonary aspergillosis; format: in vivo, mouse
# Description: Outbred wild-type CD-1 female mice at 20–24 g (Charles River Laboratory, Raleigh, NC, USA) were randomized and housed in autoclaved cages at ≤4 mice per cage with HEPA-filtered air and water. Mice were immunosuppressed by subcutaneous injection with triamcinolone acetonide (Kenalong-10, Bristol-Myer Squibb) at 40 mg/kg of body weight. Twenty-four hours after immune suppression, mice were intranasally inoculated with 2 × 10^6 live conidia (in 40 µL of sterile PBS) or PBS alone as a control. A. fumigatus strain ATCC46645 was grown on 1% GMM for 3 days at 37°C, conidia were collected in 0.01% Tween, and washed three times in sterile PBS. Immediately after fungal inoculation, mice were intraperitoneally (IP) injected with either vehicle (5% DMSO/10% PS80/25% HPBCDX 0.07% sodium acetate) or MBX-7591 at 10 mg/kg of body weight (5% DMSO/10% PS80/25% HPBCDX 0.07% sodium acetate). Mice were injected IP with a second dose of vehicle or MBX-7591 at 10 mg/kg of body weight 8 hours after the first dose of the drug. Mice were sacrificed 24 hours post-fungal challenge, lungs were excised from the chest cavity, rinsed in sterile PBS, and flash frozen for fungal burden analysis. Relative fungal burden was assessed through qPCR quantitation of A. fumigatus 18S rDNA as previously described ([38][–][40]).
# Aspergillus flavus = assay: CLSI-based microbroth dilution MIC, spectrum of activity; format: cell-based; settings: for MIC: Aspergillus flavus
# Aspergillus fumigatus [2] = assay: FIC checkerboard synergy assay, A. fumigatus; format: cell-based; settings: for MIC: Aspergillus fumigatus
# Mucor spp. = assay: CLSI-based microbroth dilution MIC, spectrum of activity; format: cell-based; settings: for MIC: Mucor
# [3] = Liver microsome stability; format: in vitro ADME; settings: mouse; murine liver microsomes, NADPH; read-out: MLMS (t1/2)
# Description: To examine the potential for first-pass metabolism of analogs in the liver, the stability of analogs in the presence of liver microsome preparations (Eurofins Discovery for human, dog, and rat; Xenotech for mouse) was measured using the method of Kuhnz and […] ([52]). The amount of parent compound remaining after incubation with microsomes in the presence of NADPH over a 30-min time range was measured using a reverse-phase liquid chromatography/mass spectroscopy method that was customized for each compound. Half-lives were calculated using linear regression analysis of several time points.
# Cryptococcus neoformans = assay: CLSI-based microbroth dilution MIC for yeast; format: cell-based; settings: for MIC: Cryptococcus neoformans
# Histoplasma capsulatum = assay: microbe, parasite or virus in culture; format: cell-based
# Aspergillus fumigatus [4] = assay: CLSI-based microbroth dilution MIC, A. fumigatus strains
# Aspergillus niger = assay: CLSI-based microbroth dilution MIC, spectrum of activity; format: cell-based
# CYP3A4 = target: T1, CYP3A4 (Homo sapiens, UniProt P08684); assay: CYP450 inhibition; format: in vitro ADME; settings: Human Cytochrome P450 kit (BD Gentest), read-out: Human CYP3A4 inhibition (%INH at 10 µM)
# T1 construct: purchased BD Gentest Corp, Woburn, MA, USA
# T1 sequence (P08684 whole entry): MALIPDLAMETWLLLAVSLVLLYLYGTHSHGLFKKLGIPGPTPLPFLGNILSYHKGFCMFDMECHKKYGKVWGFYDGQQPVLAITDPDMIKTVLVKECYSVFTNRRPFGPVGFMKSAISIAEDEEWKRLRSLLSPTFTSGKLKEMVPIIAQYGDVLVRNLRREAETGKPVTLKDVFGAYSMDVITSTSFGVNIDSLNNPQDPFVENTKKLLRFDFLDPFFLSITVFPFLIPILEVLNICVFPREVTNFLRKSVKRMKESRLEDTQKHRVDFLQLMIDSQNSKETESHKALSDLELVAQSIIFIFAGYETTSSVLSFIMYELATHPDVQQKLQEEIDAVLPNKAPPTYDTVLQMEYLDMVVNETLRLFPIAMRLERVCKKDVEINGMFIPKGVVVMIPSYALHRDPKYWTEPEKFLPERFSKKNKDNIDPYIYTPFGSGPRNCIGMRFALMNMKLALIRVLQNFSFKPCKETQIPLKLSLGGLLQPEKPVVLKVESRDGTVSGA
# Description: Inhibition of the CYP450 enzyme CYP3A4 by each compound at a final concentration of 10 µM was measured using a commercially available Human Cytochrome P450 kit (BD Gentest Corp, Woburn, MA, USA) according to the manufacturer’s instructions.
# Apophysomyces spp. = assay: CLSI-based microbroth dilution MIC, spectrum of activity; format: cell-based
compound,measurement,setting,value
O=C(c1ccsc1)N1CCC(Cc2ccc(COc3ccncc3)cc2)CC1 [MBX-7591],C14:0 relative percentage of fatty acids,A. fumigatus CEA10,0.19 ± 0.057
same,C15:0 relative percentage of fatty acids,A. fumigatus CEA10,0.59 ± 0.034
same,C16:0 (palmitic acid) relative percentage of fatty acids,A. fumigatus CEA10,23.30 ± 0.48
same,C16:1n7 relative percentage of fatty acids,A. fumigatus CEA10,0.68 ± 0.040
same,C17a relative percentage of fatty acids,A. fumigatus CEA10,0.15 ± 0.025
same,C18:0 (stearic acid) relative percentage of fatty acids,A. fumigatus CEA10,4.44 ± 0.95
same,C18:1n7 relative percentage of fatty acids,A. fumigatus CEA10,1.30 ± 0.18
same,C18:1n9 (oleic acid) relative percentage of fatty acids,A. fumigatus CEA10,20.48 ± 1.30
same,C18:2n6 relative percentage of fatty acids,A. fumigatus CEA10,48.87 ± 0.91
same,MIC,Blastomyces dematitidis; strain DI19-271,0.5 µg/mL
same,MIC,Blastomyces dematitidis; strain DI19-277,8 µg/mL
same,MIC,Blastomyces dematitidis; strain DI19-282,4 µg/mL
same,host toxicity in the IPA murine model,"[1]; 10 mg/kg IP, two doses",no host-associated toxicity
same,lung fungal burden vs vehicle control (18S rDNA qPCR),"[1]; CD-1 mice, triamcinolone immunosuppressed, 10 mg/kg IP at 0 and 8 hours, lungs at 24 hours",over threefold decrease in fungal burden
same,MIC,"Aspergillus flavus; ATCC204304, strain ATCC 204304",> 32 µg/mL
same,MIC,Aspergillus flavus; strain Aflav1,> 32 µg/mL
same,MIC UTHSC,Aspergillus flavus; strain Aflav2,> 32 µg/mL
same,average FIC,Aspergillus fumigatus [2],0.5
same,MIC,"Aspergillus fumigatus [2]; strain 08-19-02-61, alone",2.45 µg/mL
same,MIC,"Aspergillus fumigatus [2]; strain 08-31-08-91, alone",4.91 µg/mL
same,MIC,"Aspergillus fumigatus [2]; strain F11628, alone",2.45 µg/mL
same,MIC,"Aspergillus fumigatus [2]; strain F15390 (caf8), alone",2.45 µg/mL
same,FIC value,"Aspergillus fumigatus [2]; CEA10, MBX-7591 + 7.81 μg/ml OA",4
same,FIC value,"Aspergillus fumigatus [2]; CEA10, MBX-7591 + 15.63 μg/ml OA",8
same,FIC value,"Aspergillus fumigatus [2]; CEA10, MBX-7591 + 31.25 μg/ml OA",> 8
same,FIC value,"Aspergillus fumigatus [2]; strain 08-19-02-61, MBX-7591 + VCZ",0.5
same,FIC value,"Aspergillus fumigatus [2]; strain 08-31-08-91, MBX-7591 + VCZ",0.5
same,FIC score,"Aspergillus fumigatus [2]; strain CEA10, MBX-7591 + FLC",0.312
same,FIC value,"Aspergillus fumigatus [2]; strain CEA10, MBX-7591 + VCZ",0.375–0.5
same,FIC value,"Aspergillus fumigatus [2]; strain F11628, MBX-7591 + VCZ",0.3125–0.375
same,FIC value,"Aspergillus fumigatus [2]; strain F15390 (caf8), MBX-7591 + VCZ",0.5
same,MIC,"Mucor spp.; CBS277, strain CBS 277.49",> 39.2 µg/mL
same,MIC,"Mucor spp.; strain DI15-131, read-out: MIC UTHSC",> 32 µg/mL
same,MIC UTHSC,Mucor spp.; strain Mucor1,> 32 µg/mL
same,MIC UTHSC,Mucor spp.; strain Mucor2,> 32 µg/mL
same,half-life,[3],40 min
same,MIC,"Cryptococcus neoformans; strain H99, 0% CO2, read-out: MIC 0% CO2",> 39.2 µg/mL
same,MIC,"Cryptococcus neoformans; strain H99, 5% CO2, Table S4, read-out: MIC 5% CO2",2.45 µg/mL
same,MIC,"Cryptococcus neoformans; strain H99, MIC obtained under 5% CO2, Table S3",2.45 µg/mL
same,MIC,"Cryptococcus neoformans; strain H99, read-out: MIC UTHSC",> 32 µg/mL
same,MIC 0% CO2,"Cryptococcus neoformans; strain A7-35-23, 0% CO2",> 39.25 µg/mL
same,MIC 5% CO2,"Cryptococcus neoformans; strain A7-35-23, 5% CO2",2.45 µg/mL
same,MIC 0% CO2,"Cryptococcus neoformans; strain C23, 0% CO2",> 39.25 µg/mL
same,MIC 5% CO2,"Cryptococcus neoformans; strain C23, 5% CO2",2.45 µg/mL
same,MIC 0% CO2,"Cryptococcus neoformans; strain JEC21, 0% CO2",> 39.25 µg/mL
same,MIC 5% CO2,"Cryptococcus neoformans; strain JEC21, 5% CO2",2.45 µg/mL
same,MIC,"Histoplasma capsulatum; read-out: MIC UTHSC, strain DI14-269",4 µg/mL
same,MIC,"Histoplasma capsulatum; read-out: MIC UTHSC, strain DI14-284",1 µg/mL
same,MIC,"Histoplasma capsulatum; read-out: MIC UTHSC, strain DI17-143",0.5 µg/mL
same,effect of CO2 levels on A. fumigatus susceptibility,Aspergillus fumigatus [4],not impacted by CO2 levels
same,MIC,"Aspergillus fumigatus [4]; Aspergillus fumigatus, read-out: MIC (activity against various A. fumigatus strains)",~2 µg/mL
same,MIC,"Aspergillus niger; Aspergillus niger, strain AN1",> 32 µg/mL
same,MIC UTHSC,Aspergillus niger; strain AN2,> 32 µg/mL
same,inhibition at 10 µM,CYP3A4,89%
same,MIC,Apophysomyces spp.; strain Apo1,0.5 µg/mL
same,MIC,Apophysomyces spp.; strain Apo2,16 µg/mL
same,MIC,Apophysomyces spp.; strain Apo3,4 µg/mL
